Data from ChEMBL document CHEMBL1697731, “Cheminformatics analysis of assertions mined from literature that describe drug-induced liver injury in different species” (Chem Res Toxicol, 2010).

Tests used:
[1] = system: Hepatotoxicity; assay: Literature-mined compound from Fourches et al multi-species drug-induced liver injury (DILI) dataset, effect in rodents; settings: rodentia
[2] = system: Hepatotoxicity; assay: Literature-mined compound from Fourches et al multi-species drug-induced liver injury (DILI) dataset, effect in humans; settings: human
[3] = system: Hepatotoxicity; assay: Literature-mined compound from Fourches et al multi-species drug-induced liver injury (DILI) dataset, effect in non-rodents

SMILES	Hepatotoxicity [1]	Hepatotoxicity [2]	Hepatotoxicity [3]	Hepatotoxicity ([1]; Liver)	Hepatotoxicity ([2]; Liver)	Hepatotoxicity ([3]; Liver)
C[C@@H]1[C@H](O)[C@@H](C)/C=C/C=C/C=C/C=C/C=C/C=C/C=C/[C@H](O[C@@H]2O[C@H](C)[C@@H](O)[C@H](N)[C@@H]2O)C[C@@H]2O[C@](O)(C[C@@H](O)C[C@@H](O)[C@H](O)CC[C@@H](O)C[C@@H](O)CC(=O)O[C@H]1C)C[C@H](O)[C@H]2C(=O)O [AMPHOTERICIN B]	drug-induced liver injury reported	drug-induced liver injury reported	no drug-induced liver injury reported			
CCOC(=O)/C=C(C)/C=C/C=C(C)/C=C/c1c(C)cc(OC)c(C)c1C [ETRETINATE]	no drug-induced liver injury reported	drug-induced liver injury reported	no drug-induced liver injury reported			
Nc1c(Br)cc(Br)cc1CN[C@H]1CC[C@H](O)CC1 [AMBROXOL]	drug-induced liver injury reported	no drug-induced liver injury reported	no drug-induced liver injury reported			
COC(=O)N[C@H](C(=O)N[C@@H](Cc1ccccc1)[C@@H](O)CN(Cc1ccc(-c2ccccn2)cc1)NC(=O)[C@@H](NC(=O)OC)C(C)(C)C)C(C)(C)C [ATAZANAVIR]	no drug-induced liver injury reported	drug-induced liver injury reported	no drug-induced liver injury reported			
CNC(=C[N+](=O)[O-])NCCSCc1ccc(CN(C)C)o1 [RANITIDINE]	drug-induced liver injury reported	drug-induced liver injury reported	drug-induced liver injury reported			
COc1cccc2c1C(=O)c1c(O)c3c(c(O)c1C2=O)C[C@@](O)(C(=O)CO)C[C@@H]3O[C@H]1C[C@H](N)[C@H](O)[C@H](C)O1 [DOXORUBICIN]	drug-induced liver injury reported	drug-induced liver injury reported	drug-induced liver injury reported			
COc1ccc(/C=C/C(=O)Nc2ccccc2C(=O)O)cc1OC	drug-induced liver injury reported	no drug-induced liver injury reported	no drug-induced liver injury reported			
CN(Cc1cnc2nc(N)nc(N)c2n1)c1ccc(C(=O)N[C@@H](CCC(=O)O)C(=O)O)cc1 [METHOTREXATE]	drug-induced liver injury reported	drug-induced liver injury reported	drug-induced liver injury reported			
C[C@@H]1CC(=O)NN=C1c1ccc(NN=C(C#N)C#N)cc1 [LEVOSIMENDAN]	no drug-induced liver injury reported	no drug-induced liver injury reported	drug-induced liver injury reported			
CNCC(O)c1ccc(O)cc1 (stereo not given) [OXEDRINE]	drug-induced liver injury reported	no drug-induced liver injury reported	no drug-induced liver injury reported			
CCN1CCCC1CNC(=O)c1cc(S(N)(=O)=O)ccc1OC (stereo not given) [SULPIRIDE]	no drug-induced liver injury reported	drug-induced liver injury reported	drug-induced liver injury reported			
CN1CCC(=C2c3ccccc3CCc3sccc32)CC1 [PIZOTYLINE]	no drug-induced liver injury reported	drug-induced liver injury reported	no drug-induced liver injury reported			
CCCc1cc(C(N)=S)ccn1 [PROTIONAMIDE]	no drug-induced liver injury reported	drug-induced liver injury reported	no drug-induced liver injury reported			
C[C@@H]1O[C@@H]1P(=O)(O)O [FOSFOMYCIN]	no drug-induced liver injury reported	drug-induced liver injury reported	no drug-induced liver injury reported			
CCCSc1ccc2nc(NC(=O)OC)[nH]c2c1 [ALBENDAZOLE]	no drug-induced liver injury reported	drug-induced liver injury reported	no drug-induced liver injury reported			
CSc1ccc2c(c1)N(CCC1CCCCN1C)c1ccccc1S2 (stereo not given) [THIORIDAZINE]	drug-induced liver injury reported	drug-induced liver injury reported	no drug-induced liver injury reported			
CNC[C@H](O)c1ccc(O)c(O)c1 [EPINEPHRINE]				drug-induced liver injury reported	drug-induced liver injury reported	drug-induced liver injury reported
C=CC[C@@H]1/C=C(\C)C[C@H](C)C[C@H](OC)[C@H]2O[C@@](O)(C(=O)C(=O)N3CCCC[C@H]3C(=O)O[C@H](/C(C)=C/[C@@H]3CC[C@@H](O)[C@H](OC)C3)[C@H](C)[C@@H](O)CC1=O)[C@H](C)C[C@@H]2OC [TACROLIMUS ANHYDROUS]	drug-induced liver injury reported	drug-induced liver injury reported	no drug-induced liver injury reported			

SMILES	Hepatotoxicity [1]	Hepatotoxicity [2]	Hepatotoxicity [3]	Hepatotoxicity ([1]; Liver)	Hepatotoxicity ([2]; Liver)	Hepatotoxicity ([3]; Liver)
CC1=CC(=O)c2ccccc2C1=O [MENADIONE]	drug-induced liver injury reported	drug-induced liver injury reported	drug-induced liver injury reported			
Cc1cccc(Nc2ccccc2C(=O)O)c1C [MEFENAMIC ACID]				drug-induced liver injury reported	drug-induced liver injury reported	no drug-induced liver injury reported
CCCCC[C@H](O)/C=C/[C@@H]1[C@@H](C/C=C\CCCC(=O)O)[C@@H](O)C[C@H]1O [DINOPROST]	drug-induced liver injury reported	drug-induced liver injury reported	drug-induced liver injury reported			
CC[C@H](C)C(=O)O[C@H]1C[C@H](O)C=C2C=C[C@H](C)[C@H](CC[C@@H](O)C[C@@H](O)CC(=O)O)[C@H]21 [PRAVASTATIN]	drug-induced liver injury reported	drug-induced liver injury reported	drug-induced liver injury reported			
CC1(C)S[C@@H]2[C@H](NC(=O)C(C(=O)[O-])c3ccccc3)C(=O)N2[C@H]1C(=O)[O-].[Na+].[Na+] (stereo not given in full) [CARBENICILLIN DISODIUM]	no drug-induced liver injury reported	drug-induced liver injury reported	no drug-induced liver injury reported			
NC(=O)NC1NC(=O)NC1=O (stereo not given) [ALLANTOIN]	drug-induced liver injury reported	no drug-induced liver injury reported	no drug-induced liver injury reported			
CCCCCCCCCCCCS[C@H](C(=O)Nc1cc(C)c(O)c(C)c1C)c1ccccc1 [EFLUCIMIBE]	no drug-induced liver injury reported	no drug-induced liver injury reported	drug-induced liver injury reported			
C[C@H]1O[C@@H](O[C@H]2[C@@H](O)C[C@H](O[C@H]3[C@@H](O)C[C@H](O[C@H]4CC[C@@]5(C)[C@H](CC[C@@H]6[C@@H]5CC[C@]5(C)[C@@H](C7=CC(=O)OC7)CC[C@]65O)C4)O[C@@H]3C)O[C@@H]2C)C[C@H](O)[C@@H]1O [DIGITOXIN]	drug-induced liver injury reported	no drug-induced liver injury reported	no drug-induced liver injury reported			
CC(C)(Sc1cc(C(C)(C)C)c(O)c(C(C)(C)C)c1)Sc1cc(C(C)(C)C)c(O)c(C(C)(C)C)c1 [PROBUCOL]	drug-induced liver injury reported	drug-induced liver injury reported	drug-induced liver injury reported			
CCC1(c2ccccc2)CCC(=O)NC1=O (stereo not given) [GLUTETHIMIDE]	no drug-induced liver injury reported	drug-induced liver injury reported	no drug-induced liver injury reported			
CNNCc1ccc(C(=O)NC(C)C)cc1 [PROCARBAZINE]	drug-induced liver injury reported	no drug-induced liver injury reported	no drug-induced liver injury reported			
O=c1[nH]cc(F)c(=O)[nH]1 [FLUOROURACIL]	drug-induced liver injury reported	drug-induced liver injury reported	drug-induced liver injury reported			
Cc1ncsc1CCCl [CLOMETHIAZOLE]	drug-induced liver injury reported	drug-induced liver injury reported	no drug-induced liver injury reported			
CN1CC[C@H](c2c(O)cc(O)c3c(=O)cc(-c4ccccc4Cl)oc23)[C@H](O)C1 [ALVOCIDIB]	no drug-induced liver injury reported	drug-induced liver injury reported	no drug-induced liver injury reported			
C=C(C)[C@@H]1CC[C@]2(C(=O)O)CC[C@]3(C)[C@H](CC[C@@H]4[C@@]5(C)CC[C@H](O)C(C)(C)[C@@H]5CC[C@]43C)[C@@H]12 [BETULINIC ACID]	no drug-induced liver injury reported	drug-induced liver injury reported	no drug-induced liver injury reported			
C[C@]12C=CC(=O)C=C1CC[C@H]1[C@@H]3C[C@@H](O)[C@](O)(C(=O)CO)[C@@]3(C)C[C@H](O)[C@@]12F [TRIAMCINOLONE]	drug-induced liver injury reported	no drug-induced liver injury reported	no drug-induced liver injury reported			
CC(C)=CCN1CC[C@]2(C)c3cc(O)ccc3C[C@H]1[C@H]2C [(+)-PENTAZOCINE]	drug-induced liver injury reported	no drug-induced liver injury reported	no drug-induced liver injury reported			
